Test results: patent publication US20030087881A1, “Irreversible inhibitors of tyrosine kinases” (priority 1997, published 2003)

Assays:
[1] = tested on: A431 human epidermoid carcinoma cells; details: 2 μM compound for 1 or 2 hours, washed free, EGF stimulation
Experimental: (§1) Extracts were made by lysing the monolayers in 0.2 mL of boiling Laemlli buffer (2% sodium dodecyl sulfate, 5% beta-mercaptoethanol, 10% glycerol and 50 mM tris[hydroxymethyl]aminomethane (Tris), pH 6.8), and the lysates were heated to 100° C. for 5 minutes. Proteins in the lysate were separated by polyacrylamide gel electrophoresis and electrophoretically transferred to nitrocellulose. The membrane was washed once in 10 mM Tris, pH 7.2, 150 mM NaCl, 0.01% Azide (TNA), and blocked overnight in TNA containing 5% bovine serum albumin and 1% ovalbumin. The membrane was blotted for 2 hours with antiphosphotyrosine antibody (UBI, 1 μg/mL in blocking buffer) and then washed twice in TNA, once in TNA containing 0.05% Tween-20 detergent and 0.05% nonidet P-40 detergent and twice in TNA. […] Band intensities were determined with a Molecular Dynamics laser densitometer.

[2] = tested on: A431 human epidermoid carcinoma cells; test: cells; details: A-431, read-out: IC50 (nM) A431 Cell Autophosphorylation Assay
Experimental: as §1
Duplicate sets of cells were treated with a range of concentrations of the designated compound to be tested as an inhibitor for 15 minutes. The cells were then stimulated with 100 ng/mL of EGF for 5 minutes and extracts made as described under the Western Blotting Procedure.

[3] = target: Human EGF receptor tyrosine kinase (Homo sapiens, UniProt P00533); details: read-out: IC50 (nM) EGFr (isolated enzyme assay); isolated enzyme from A431 cells; 10 μM ATP
Sequence of Human EGF receptor tyrosine kinase (P00533 25-1210): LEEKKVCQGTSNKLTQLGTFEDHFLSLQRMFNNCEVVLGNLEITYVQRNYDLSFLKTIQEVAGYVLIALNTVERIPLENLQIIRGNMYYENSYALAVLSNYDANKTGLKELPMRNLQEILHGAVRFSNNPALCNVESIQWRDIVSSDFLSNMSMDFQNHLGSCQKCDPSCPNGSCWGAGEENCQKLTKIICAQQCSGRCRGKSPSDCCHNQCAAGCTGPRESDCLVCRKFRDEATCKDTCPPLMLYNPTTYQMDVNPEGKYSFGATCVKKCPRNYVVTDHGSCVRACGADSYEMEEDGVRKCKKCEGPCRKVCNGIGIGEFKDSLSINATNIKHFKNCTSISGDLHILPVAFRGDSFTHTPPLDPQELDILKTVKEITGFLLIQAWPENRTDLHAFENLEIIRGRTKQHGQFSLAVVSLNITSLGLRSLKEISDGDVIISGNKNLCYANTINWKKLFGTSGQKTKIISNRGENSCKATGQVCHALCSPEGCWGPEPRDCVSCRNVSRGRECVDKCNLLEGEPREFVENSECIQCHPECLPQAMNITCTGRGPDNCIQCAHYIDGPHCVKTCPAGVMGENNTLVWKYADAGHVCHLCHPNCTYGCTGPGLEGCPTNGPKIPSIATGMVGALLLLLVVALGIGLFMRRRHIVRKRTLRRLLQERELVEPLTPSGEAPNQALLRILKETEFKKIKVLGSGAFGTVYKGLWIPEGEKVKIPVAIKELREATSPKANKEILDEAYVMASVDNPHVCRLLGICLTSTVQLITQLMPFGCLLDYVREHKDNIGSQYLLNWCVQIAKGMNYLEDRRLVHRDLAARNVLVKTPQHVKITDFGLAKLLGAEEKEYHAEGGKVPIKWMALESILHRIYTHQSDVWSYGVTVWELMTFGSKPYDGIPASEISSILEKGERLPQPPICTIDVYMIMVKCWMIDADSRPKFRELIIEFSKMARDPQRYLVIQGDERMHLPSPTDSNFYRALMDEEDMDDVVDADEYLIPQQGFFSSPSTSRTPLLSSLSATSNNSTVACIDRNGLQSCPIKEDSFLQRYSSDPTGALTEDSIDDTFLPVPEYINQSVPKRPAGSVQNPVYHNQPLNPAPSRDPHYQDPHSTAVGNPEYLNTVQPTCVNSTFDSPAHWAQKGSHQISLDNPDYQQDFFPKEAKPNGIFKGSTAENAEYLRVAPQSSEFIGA
Experimental: Human EGF receptor tyrosine kinase was isolated from A431 human epidermoid carcinoma cells by the following method. Cells were grown in roller bottles in dMEM/F12 media (Gibco/BRL) containing 10% fetal calf serum. Approximately 10^9 cells were lysed in 2 volumes of buffer containing 20mM N-[2-hydroxyethyl]piperazine-N′-[2-ethane sulfonic acid](Hepes), pH 7.4, 5 mM ethylene glycol-bis(β-aminoethyl ether) N,N,N′,N′-tetraacetic acid (EGTA), 1% Triton X-100, 10% glycerol, 0.1 mM sodium orthovanadate, 5 mM sodium fluoride, 4 mM pyrophosphate, 4 mM benzamide, 1 mM dithiothreitol (DTT), 80 μg/mL aprotinin, 40 μg/mL leupeptin, and 1 mM phenylmethyl sulfonyl fluoride (PMSF). After centrifugation at 25,000×g for 10 minutes, the supernatant was applied to a fast Q sepharose column (Pharmacia Biotech., Inc., Piscataway, N.J.) and eluted with a linear gradient from 0.1 M NaCl to 0.4 M NaCl in 50 mM Hepes, 10% glycerol, pH 7.4. Enzyme active fractions were pooled, divided into aliquots, and stored at −100° C.
Enzyme assays for IC50determinations were performed in 96-well filter plates (Millipore MADVN6550, Millipore, Bedford, Mass.). […] The wells are then washed 5 times with 0.2 mL of 10% TCA and ^32P incorporation determined with a Wallac beta plate counter (Wallac, Inc., Gaithersburg, Pa.).

C=CC(=O)Nc1ccc2ncnc(N3CCc4ccc(Br)cc43)c2c1 [Example 1, N-[4-(6-Bromo-2,3-dihydroindol-1-yl)quinazolin-6-yl]acrylamide]
melting point: 214 to 216 °C | Irreversibility Test [1]: yes, irreversible | IC50 [2]: 9.9 nM | IC50 [3]: 0.4 nM
